# Reference: US8716312B2, “Inhibitors of diacylglycerol acyltransferase” (Merck Sharp & Dohme Corporation, priority 2008, dated 2014)
# Target: T1, human DGAT1 enzyme (Homo sapiens, UniProt O75907)
# T1 sequence (O75907 1-488): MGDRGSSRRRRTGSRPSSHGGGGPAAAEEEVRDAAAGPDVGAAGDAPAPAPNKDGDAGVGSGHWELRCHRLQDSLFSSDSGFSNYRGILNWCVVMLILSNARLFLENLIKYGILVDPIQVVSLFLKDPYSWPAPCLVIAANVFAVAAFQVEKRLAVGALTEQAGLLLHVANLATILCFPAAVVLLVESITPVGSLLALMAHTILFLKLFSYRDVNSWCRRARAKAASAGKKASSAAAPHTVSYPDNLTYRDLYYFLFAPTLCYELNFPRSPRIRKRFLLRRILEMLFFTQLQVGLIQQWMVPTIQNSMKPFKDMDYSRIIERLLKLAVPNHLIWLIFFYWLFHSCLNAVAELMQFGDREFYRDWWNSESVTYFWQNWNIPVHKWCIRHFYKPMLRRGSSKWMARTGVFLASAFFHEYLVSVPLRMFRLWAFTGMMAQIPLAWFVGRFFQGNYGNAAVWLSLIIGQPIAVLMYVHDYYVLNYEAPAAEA
# Assay: in vitro DGAT1 inhibition assay (microsomes, [14C]-palmitoyl-CoA, SPA beads)
# Description: The in vitro assay to identify DGAT1 inhibitors uses human DGAT1 enzyme expressed in Sf9 insect cells prepared as microsomes. The reaction is initiated by the addition of the combined substrates 1,2-dioleoyl-sn-glycerol and [^14C]-palmitoyl-Co A and incubated with test compounds and microsomal membranes for 2 hours at room temperature. The assay is stopped by adding 0.5 mg wheat germ agglutinin beads in assay buffer with 1% Brij-35 and 1% 3-cholamidopropyldimethyl-ammonio-1-propane sulfonate. Plates are sealed with TopSeal and incubated for 18 hours to allow the radioactive triglyceride product to come into proximity with the bead. Plates are read on a TopCount instrument.
# Percent inhibition was calculated as the percent of (test compound inhibition minus non-specific binding) relative to (total binding minus non-specific binding). IC50 values were determined by curve fitting the data to a Sigmoidal dose-response in GraphPad Prism utilizing the following equation: Y=A+(B−A)/(1+10^((Log IC50−X))), where A and B are the bottom and top of the curve (highest and lowest inhibition), respectively, and X is the logarithm of concentration.
row,Compound,IC50 [nM]
1,"O=C(Nc1ccc(N2CCN(C(=O)Cc3ccccc3O)CC2)nc1)c1oc(N2CCC(c3ccccc3)CC2)nc1C(F)(F)F [Compound 226, N-(6-(4-(2-(2-hydroxyphenyl)acetyl)piperazin-1-yl)pyridin-3-yl)-2-(4-phenylpiperidin-1-yl)-4-(trifluoromethyl)oxazole-5-carboxamide]",101 to 500
2,"Cc1ccccc1NC(=O)c1ccc2c(c1)Cc1cc(NC(=O)c3oc(N4CCCC(C)C4)nc3C(F)(F)F)ccc1-2 (centres unmarked) [Compound 235, 2-(3-methylpiperidin-1-yl)-N-(7-(o-tolylcarbamoyl)-9H-fluoren-2-yl)-4-(trifluoromethyl)oxazole-5-carboxamide]",101 to 500
3,O=C(Nc1ccc(N2CCN(c3nc4ccccc4o3)CC2)nc1)c1oc(N2CCC(c3ccccc3)CC2)nc1C(F)(F)F [Compound 236],101 to 500
4,"O=C(Nc1ccc(N2CCN(c3nc4ccccc4[nH]3)CC2)nc1)c1oc(N2CCC(c3ccccc3)CC2)nc1C(F)(F)F [Compound 237, N-(6-(4-(1H-benzo[d]imidazol-2-yl)piperazin-1-yl)pyridin-3-yl)-2-(4-phenylpiperidin-1-yl)-4-(trifluoromethyl)oxazole-5-carboxamide]",101 to 500
5,"O=C(Nc1ccc(N2CCN(C(=O)C3Cc4ccccc4N3)CC2)nc1)c1oc(N2CCC(c3ccccc3)CC2)nc1C(F)(F)F (centres unmarked) [Compound 240, N-(6-(4-(indoline-2-carbonyl)piperazin-1-yl)pyridin-3-yl)-2-(4-phenylpiperidin-1-yl)-4-(trifluoromethyl)oxazole-5-carboxamide]",101 to 500
6,"O=C(Nc1ccc(N2CCN(C(=O)C3CCc4ccccc4N3)CC2)nc1)c1oc(N2CCC(c3ccccc3)CC2)nc1C(F)(F)F (centres unmarked) [Compound 241, 2-(4-phenylpiperidin-1-yl)-N-(6-(4-(1,2,3,4-tetrahydroquinoline-2-carbonyl)piperazin-1-yl)pyridin-3-yl)-4-(trifluoromethyl)oxazole-5-carboxamide]",101 to 500
7,"O=C(Nc1ccc(N2CCN(C(=O)C3NCCc4ccccc43)CC2)nc1)c1oc(N2CCC(c3ccccc3)CC2)nc1C(F)(F)F (centres unmarked) [Compound 242, 2-(4-phenylpiperidin-1-yl)-N-(6-(4-(1,2,3,4-tetrahydroisoquinoline-1-carbonyl)piperazin-1-yl)pyridin-3-yl)-4-(trifluoromethyl)oxazole-5-carboxamide]",101 to 500
8,"O=C(Nc1ccc(N2CCN(C(=O)C3Cc4ccccc4C3)CC2)nc1)c1oc(N2CCC(c3ccccc3)CC2)nc1C(F)(F)F [Compound 244, N-(6-(4-(2,3-dihydro-1H-indene-2-carbonyl)piperazin-1-yl)pyridin-3-yl)-2-(4-phenylpiperidin-1-yl)-4-(trifluoromethyl)oxazole-5-carboxamide]",101 to 500
9,"O=C(Nc1ccc(N2CCN(C(=O)Nc3ccccc3F)C(=O)C2)nc1)c1oc(N2CCC(c3ccccc3)CC2)nc1C(F)(F)F [Compound 248, N-(6-(4-(2-fluorophenylcarbamoyl)-3-oxopiperazin-1-yl)pyridin-3-yl)-2-(4-phenylpiperidin-1-yl)-4-(trifluoromethyl)oxazole-5-carboxamide]",101 to 500
10,"O=C(O)c1ccccc1OCC1CCN(c2ccc(NC(=O)c3oc(N4CCC(c5ccccc5)CC4)nc3C(F)(F)F)cn2)CC1 [Compound 266, 2-((1-(5-(2-(4-phenylpiperidin-1-yl)-4-(trifluoromethyl)oxazole-5-carboxamido)pyridin-2-yl)piperidin-4-yl)methoxy)benzoic acid]",101 to 500

# The next lines start with the values.
row,IC50 [nM],Compound
1,101 to 500,"CCOC(=O)c1nnc2n1CCN(c1ccc(NC(=O)c3oc(N4CCC(c5ccccc5)CC4)nc3C(F)(F)F)cn1)C2 [Compound 216, Ethyl 5,6,7,8-tetrahydro-7-[5-[[[2-(4-phenyl-1-piperidinyl)-4-(trifluoromethyl)-5-oxazolyl]carbonyl]amino]-2-pyridinyl]-1,2,4-triazolo[4,3-a]pyrazine-3-carboxylate]"
2,101 to 500,"CC1CCCN(c2nc(C(F)(F)F)c(C(=O)Nc3ccc(N4CC(NC(=O)Nc5ccccc5F)C4)nc3)o2)C1 (centres unmarked) [Compound 221, N-(6-(3-(3-(2-fluorophenyl)ureido)azetidin-1-yl)pyridin-3-yl)-2-(3-methylpiperidin-1-yl)-4-(trifluoromethyl)oxazole-5-carboxamide]"
3,101 to 500,"CC1CCCN(c2nc(C(F)(F)F)c(C(=O)Nc3ccc(NC4CN(C(=O)Nc5ccccc5F)C4)nc3)o2)C1 (centres unmarked) [Compound 223, N-(6-(1-(2-fluorophenylcarbamoyl)azetidin-3-ylamino)pyridin-3-yl)-2-(3-methylpiperidin-1-yl)-4-(trifluoromethyl)oxazole-5-carboxamide]"
4,11 to 100,O=C(Nc1ccc(N2CCN(C(=O)Cc3ccccc3F)CC2)nc1)c1oc(N2CCC(c3ccccc3)CC2)nc1C(F)(F)F [Compound 225]
5,11 to 100,"O=C(Nc1ccc(N2CCN(C(=O)Cc3c(F)cccc3F)CC2)nc1)c1oc(N2CCC(c3ccccc3)CC2)nc1C(F)(F)F [Compound 229, N-(6-(4-(2-(2,6-difluorophenyl)acetyl)piperazin-1-yl)pyridin-3-yl)-2-(4-phenylpiperidin-1-yl)-4-(trifluoromethyl)oxazole-5-carboxamide]"
6,11 to 100,"CC1CCCN(c2nc(C(F)(F)F)c(C(=O)Nc3ccc(N4CCC(OCc5cccc(C(=O)O)c5)CC4)nc3)o2)C1 (centres unmarked) [Compound 254, 3-((1-(5-(2-(3-methylpiperidin-1-yl)-4-(trifluoromethyl)oxazole-5-carboxamido)pyridin-2-yl)piperidin-4-yloxy)methyl)benzoic acid]"
7,11 to 100,"CC1CCCN(c2nc(C(F)(F)F)c(C(=O)Nc3ccc(N4CCC(OCc5ccccc5C(=O)O)CC4)nc3)o2)C1 (centres unmarked) [Compound 255, 2-((1-(5-(2-(3-methylpiperidin-1-yl)-4-(trifluoromethyl)oxazole-5-carboxamido)pyridin-2-yl)piperidin-4-yloxy)methyl)benzoic acid]"
8,11 to 100,"O=C(O)c1cccc(COC2CCN(c3ccc(NC(=O)c4oc(N5CCC(c6ccccc6)CC5)nc4C(F)(F)F)cn3)CC2)c1 [Compound 256, 3-((1-(5-(2-(4-phenylpiperidin-1-yl)-4-(trifluoromethyl)oxazole-5-carboxamido)pyridin-2-yl)piperidin-4-yloxy)methyl)benzoic acid]"
9,11 to 100,"O=C(O)c1cccc(OCC2CCN(c3ccc(NC(=O)c4oc(N5CCC(c6ccccc6)CC5)nc4C(F)(F)F)cn3)CC2)c1 [Compound 264, 3-((1-(5-(2-(4-phenylpiperidin-1-yl)-4-(trifluoromethyl)oxazole-5-carboxamido)pyridin-2-yl)piperidin-4-yl)methoxy)benzoic acid]"
10,11 to 100,"O=C(O)c1ccc(F)c(OCC2CCN(c3ccc(NC(=O)c4oc(N5CCC(c6ccccc6)CC5)nc4C(F)(F)F)cn3)CC2)c1 [Compound 268, 4-fluoro-3-((1-(5-(2-(4-phenylpiperidin-1-yl)-4-(trifluoromethyl)oxazole-5-carboxamido)pyridin-2-yl)piperidin-4-yl)methoxy)benzoic acid]"
